Assay results taken from patent publication US20220048915A1 (SHANGHAI PHARMACEUTICALS HOLDING CO., LTD., priority 2018, published 2022).

Assays:
[1] = biological target: p38α (Homo sapiens, UniProt Q16539); test: In vitro inhibition of p38 kinase (LANCE Ultra TR-FRET); format: biochemical
[2] = biological target: p38β (Homo sapiens, UniProt Q15759); test: as above; format: biochemical
[3] = biological target: T1, p38γ (Homo sapiens, UniProt P53778); test: as above; format: biochemical; conditions: read-out: Kinase in vitro IC50(nM) p38γ
T1 sequence (P53778 1-367): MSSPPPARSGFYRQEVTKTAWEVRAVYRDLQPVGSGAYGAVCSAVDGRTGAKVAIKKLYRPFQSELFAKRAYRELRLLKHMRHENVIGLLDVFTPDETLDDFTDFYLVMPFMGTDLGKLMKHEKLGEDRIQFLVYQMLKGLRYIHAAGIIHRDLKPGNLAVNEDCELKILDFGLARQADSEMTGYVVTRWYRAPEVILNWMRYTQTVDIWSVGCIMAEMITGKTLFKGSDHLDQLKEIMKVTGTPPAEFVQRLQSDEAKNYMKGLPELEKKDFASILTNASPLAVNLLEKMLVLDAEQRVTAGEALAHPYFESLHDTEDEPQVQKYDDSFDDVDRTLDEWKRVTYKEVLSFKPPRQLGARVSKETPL

[4] = Pharmacokinetic properties in rats; format: in vivo, SD rats
Description: Ten male SD rats, weighing 180-220 g (provided by Shanghai Xipuerbikai Laboratory Animal Co., Ltd, Certificate No.: 20130016008116). The rats were fasted for feed for 12-16 hours before the experiment but water was allowed.
Blood samples were collected from the fundus vein of rats before and at 2, 5, 15, 30, 60, 90, 120, 240, 360, 480, 600 and 1440 minutes after administration, respectively.
Blood samples were collected from the fundus vein of rats before and at 5, 15, 30, 60, 90, 120, 240, 360, 480, 600, 1440 minutes after administration respectively.
Blood samples were centrifuged at 8000 rpm for 5 minutes, and supernatant plasma was taken. To 50 μL of plasma samples was added 300 μL of acetonitrile containing internal standard (propranolol, 25 ng/mL) to precipitate the protein. After vortexing for 10 minutes and centrifuging at 6000 g and 4° C. for 10 minutes, the supernatant was taken and placed in a 96-well plate for determination of drug concentration in plasma by UPLC/MS-MS.

[5] = Pharmacokinetic properties in mice; format: in vivo, ICR mice
[6] = male, SD, plasma, rat, po 6 mg/kg
[7] = male, ICR, mouse, plasma, po 10 mg/kg

Chain of p38α (Q16539 whole entry): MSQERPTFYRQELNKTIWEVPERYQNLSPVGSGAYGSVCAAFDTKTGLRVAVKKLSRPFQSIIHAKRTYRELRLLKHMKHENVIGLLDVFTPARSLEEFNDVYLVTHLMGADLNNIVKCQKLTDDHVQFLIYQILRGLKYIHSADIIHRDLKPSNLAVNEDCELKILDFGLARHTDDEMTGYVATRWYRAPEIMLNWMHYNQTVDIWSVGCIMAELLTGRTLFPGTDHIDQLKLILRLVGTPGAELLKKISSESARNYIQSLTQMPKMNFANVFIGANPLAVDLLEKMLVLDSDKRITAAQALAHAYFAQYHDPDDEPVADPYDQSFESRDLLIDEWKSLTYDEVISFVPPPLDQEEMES
Chain of p38β (Q15759 whole entry): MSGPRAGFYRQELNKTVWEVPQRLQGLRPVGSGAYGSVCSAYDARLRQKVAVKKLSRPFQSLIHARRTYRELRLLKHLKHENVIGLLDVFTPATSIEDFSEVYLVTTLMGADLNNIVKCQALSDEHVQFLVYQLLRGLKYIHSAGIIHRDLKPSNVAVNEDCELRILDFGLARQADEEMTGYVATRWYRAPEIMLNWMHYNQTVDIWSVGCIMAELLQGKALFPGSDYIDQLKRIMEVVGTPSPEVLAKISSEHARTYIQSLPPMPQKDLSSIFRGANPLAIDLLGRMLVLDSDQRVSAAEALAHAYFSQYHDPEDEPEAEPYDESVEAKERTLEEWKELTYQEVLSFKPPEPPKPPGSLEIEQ

With `O=c1ncn2nc(Oc3ccc(F)cc3F)ccc2c1-c1c(Cl)cccc1Cl` [Compound I-4, 5-(2,6-dichlorophenyl)-2-(2,4-difluorophenoxy)-6H-pyrimido[1,6-b]pyridazin-6-one] the “inhibitory activity against p38α kinase compared to the positive compound” value [1] was “superior inhibitory activity”, the IC50 ([1]; read-out: Kinase in vitro IC50(nM) p38α) was 9.87 nM and the “inhibitory activity against p38β kinase compared to the positive compound” value [2] was “superior inhibitory activity”. It also gave an IC50 ([2]; read-out: Kinase in vitro IC50(nM) p38β) of 47.4 nM, an IC50 [3] of over 3330 nM and a clearance ([4]; male, SD, plasma, rat, iv 3 mg/kg) of 8.33 mL/min/kg. The Vd ([4]; male, SD, plasma, rat, iv 3 mg/kg, read-out: Vss (iv)) was 2.1 L/kg, the Cmax [4, 6] was 994 ng/mL and the MRT [4, 6] was 7.5 h. For the same compound, the Tmax [4, 6] was 4.5 h, the “Thalf (iv)” value ([4]; rat, iv 3 mg/kg) was 3.4 h and the BA ([4]; rat, po 6 mg/kg vs iv 3 mg/kg) was 68.9%. For the same compound, the “AUClast (po)” value ([4]; rat, po 6 mg/kg, 5-1440 minutes) was 8857.1 (h)*(ng/mL), the “clearance rate as fraction of that of the positive compound” value ([4]; rats) was 1/3 and the “absorption compared with the positive compound VX-745 at the same dose” value ([4]; rats, 6 mg/kg) was “significantly higher”. For the same compound, the “AUC relative to that of the positive compound” value ([4]; rats, 6 mg/kg, 5-1440 minutes) was 5.4 times, the “clearance rate as fraction of that of the positive compound” value [5] was 4/11 and the “absorption compared with the positive compound VX-745 at the same dose” value ([5]; 10 mg/kg) was “significantly higher”. The “AUC relative to that of the positive compound” value ([5]; 10 mg/kg, 5-1440 minutes) was 4.8 times, the “Thalf (iv)” value ([5]; iv 3 mg/kg) was 2.5 h and the clearance ([5]; male, ICR, mouse, plasma, iv 3 mg/kg) was 6.67 mL/min/kg. It also gave a Vd ([5]; male, ICR, mouse, plasma, iv 3 mg/kg, read-out: Vss (iv)) of 1.2 L/kg, a Cmax [5, 7] of 3000 ng/mL and an MRT [5, 7] of 4.4 h. The Tmax [5, 7] was 1.5 h, the BA ([5]; po 10 mg/kg vs iv 3 mg/kg) was 36.8% and the “AUClast (po)” value ([5]; po 10 mg/kg, 5-1440 minutes) was 8944 (h)*(ng/mL).
